{"source": "paper PMC12114375", "about": "“Discovery of Hydrazineyl Amide Derivative of Pseudolaric Acid B for Reprogramming Tumor-Associated Macrophages Against Tumor Growth” (Molecules, 2025)", "key": {"[1]": {"test_system": "ARG1 mRNA expression in RAW 264.7 cells", "experiment": "qRT-PCR of ARG1 mRNA in IL-4/IL-13-stimulated RAW 264.7 cells", "format": "cell-based, mouse", "conditions": "Mus musculus, RAW264.7, IL-4/IL-13 (20 ng/mL) plus compound 10 μM, 12 h, stimulated control = 100%, mean ± SD, read-out: ARG1 mRNA Relative Expression (%)", "excerpt": "We first investigated the impacts of a series of commercially available natural pseudolaric acids or their O-pyranosides (Figure 1) on the pro-tumoral phenotype of TAMs, which play a critical role in anti-tumor immune response modulation. […] In contrast, M1-biased macrophages combat tumor growth and bacterial infections by expressing inducible nitric oxide synthase 2 (NOS2), which catalyzes the production of nitric oxide (NO). Recognizing the pivotal roles of ARG1 and NOS2, we utilized these molecules as key biomarkers and effectors for assessing macrophage immune function. In our experiments, the mouse monocyte–macrophage leukemia cell line RAW 264.7 was induced with IL-4/IL-13 to acquire an M2-like pro-tumoral phenotype. Concurrently, the cells were treated with the pseudolaric acid-related natural products 1–7 at a concentration of 10 μM for 12 h. Additionally, PLX3397 was used as a positive control at a concentration of 0.5 μM. […] As shown in Table 1 and Figure S1A, pseudolaric acid B (1), its deacetoxyl analogue 2 (pseudolaric acid C), and β-D-glucoside 7 substantially attenuated the upregulation of ARG1 mRNA expression induced by IL-4/IL-13, with statistically significant effects. In contrast, bis-carboxylic acids analogs 4 (pseudolaric acid C2) and 6 (demethoxydeacetoxypseudolaric acid B) have no significant impact on ARG1 mRNA expression.\nWith these carboxylic acid-modified derivatives in hand, we investigated their impact at 10 μM on ARG1 and NOS2 mRNA expression in RAW 264.7 cells pre-stimulated with IL-4/IL-13 to evaluate the effects on the pro-tumor phenotype of macrophages. […] Further removal of one hydroxyl from the glycerol moiety 15 further enhanced the inhibitory effect on ARG1 expression but had no significant impact on NOS2 expression.\nTotal RNA was isolated from cells using the EZ-press RNA Purification Kit (EZBioscience, Suzhou, China) and subjected to reverse transcription with the 5×HiScript II qRT SuperMix II (Vazyme, Nanjing, China). PCR was performed with the 2×ChamQ Universal SYBR qPCR Master Mix (Vazyme, Nanjing, China). All primers for qRT-PCR are described in Table S1. The 2^−∆∆Ct method was utilized to calculate the fold change in gene expression, with the expression levels in the stimulated group set as the baseline for normalization."}, "[2]": {"test_system": "Hepa1-6 tumor", "experiment": "In vivo anti-tumor efficacy, Hepa1-6 subcutaneous tumor model", "conditions": "Hepa1-6 model; for tumor growth inhibitory rate: intraperitoneal injections, once daily", "excerpt": "(§1) Encouraged by its intriguing cellular activities, we investigated the anti-tumor effect of compound 12 in vivo. The Hepa1-6 liver cancer model, an immunocompetent macrophage-rich subcutaneous murine tumor model, was thus established. […] To further investigate whether the in vivo anti-tumor effect of compound 12 is associated with its inhibition of pro-tumoral macrophages and consequent activation of anti-tumor CD8^+ T cells, we analyzed the infiltration of macrophages and CD8^+ T cells in the tumor tissue of the Hepa1-6 model.\nAnimal procedures were approved by the Institutional Animal Care and Use Committee of the Shanghai Institute of Materia Medica (approval no. 2024-06-DJ-95). Mice (4–6 weeks old) were housed with five or six mice per cage in a specific pathogen-free room with a 12 h light/dark schedule at 25 °C ± 1 °C and were fed an autoclaved chow diet and water ad libitum. Hepa1-6 cells (2 × 10^6 cells) were subcutaneously implanted in the right flank of C57 BL/6 mice. […] The tumor volumes and body weights were measured twice per week. Tumor volume (TV) was calculated as follows: TV = (length × width^2)/2. Significant differences between the treated versus the vehicle groups were determined using the Student’s t-test. […] Viability was determined by staining with either the LIVE/DEAD® Fixable Violet Dead Cell Stain Kit (Invitrogen, Waltham, […], USA) or the Zombie Aqua™ Fixable Viability Kit (Biolegend, San Diego, CA, USA). Data were analyzed using FlowJo10.4 software.\nFigure 4 Compound 12 inhibited Hepa1-6 tumor growth in vivo and remodeled the tumor microenvironment. […] The TVs (A) and body weights (B) are presented as the mean ± SEM. * p < 0.05 vs. the vehicle group, determined by the Student’s t-test. […] The infiltration of CD45^+ cells (C), TAMs (D), CD206^+ TAMs (E), ARG1^+ TAMs (F), CD8^+ T cells (G), GRZB^+ CD8^+ T cells (H), IFN γ^+ CD8^+ T cells (I), and TNF α^+ CD8^+ T cells (J) was tested (n = 8 mice in the vehicle group and n = 7 mice in the 12-treated group). * p < 0.05, ** p < 0.01, *** p < 0.001 vs. the vehicle group, determined by the Student’s t-test."}, "[3]": {"test_system": "tumor-infiltrating immune cells in Hepa1-6 tumor", "experiment": "Flow cytometric analysis of tumor-infiltrating immune cells in the Hepa1-6 model", "format": "in vivo, C57 BL/6 mice", "conditions": "Hepa1-6 tumor tissue, 25 mg/kg, 2 h after the last treatment", "excerpt": "as §1\nAnimal procedures were approved by the Institutional Animal Care and Use Committee of the Shanghai Institute of Materia Medica (approval no. 2024-06-DJ-95). Mice (4–6 weeks old) were housed with five or six mice per cage in a specific pathogen-free room with a 12 h light/dark schedule at 25 °C ± 1 °C and were fed an autoclaved chow diet and water ad libitum. Hepa1-6 cells (2 × 10^6 cells) were subcutaneously implanted in the right flank of C57 BL/6 mice. When the tumors reached a volume of around 50 mm^3, the mice were randomized into the treatment groups. The vehicle groups were given the vehicle alone, and the treatment groups received compound 1 in the indicated doses via intratumoral injections once daily on the indicated days. The tumor volumes and body weights were measured twice per week. Tumor volume (TV) was calculated as follows: TV = (length × width^2)/2. Significant differences between the treated versus the vehicle groups were determined using the Student’s t-test. […] Consequently, the sample size for this treatment group was reduced to 7. Hepa1-6 tumor tissues were minced and digested using a Mouse Tumor Dissociation Kit (Miltenyi, Bergisch Gladbach, Germany). The cells were passed through a 70 μm cell strainer, stained with a fluorescent antibody or the matching isotype controls for 30 min at room temperature, and then tested using a BD CytoFLEX LX (Beckman). […] Viability was determined by staining with either the LIVE/DEAD® Fixable Violet Dead Cell Stain Kit (Invitrogen, Waltham, […], USA) or the Zombie Aqua™ Fixable Viability Kit (Biolegend, San Diego, CA, USA). Data were analyzed using FlowJo10.4 software.\nFigure 4 Compound 12 inhibited Hepa1-6 tumor growth in vivo and remodeled the tumor microenvironment. […] The TVs (A) and body weights (B) are presented as the mean ± SEM. * p < 0.05 vs. the vehicle group, determined by the Student’s t-test. […] The infiltration of CD45^+ cells (C), TAMs (D), CD206^+ TAMs (E), ARG1^+ TAMs (F), CD8^+ T cells (G), GRZB^+ CD8^+ T cells (H), IFN γ^+ CD8^+ T cells (I), and TNF α^+ CD8^+ T cells (J) was tested (n = 8 mice in the vehicle group and n = 7 mice in the 12-treated group). * p < 0.05, ** p < 0.01, *** p < 0.001 vs. the vehicle group, determined by the Student’s t-test. […]"}}}
{"molecule": "COC(=O)C1=CC[C@@]23CC[C@@H]([C@@](C)(/C=C/C=C(\\C)C(=O)NNCCO)OC2=O)[C@@]3(OC(C)=O)CC1", "note": "[compound 12, Methyl(3R,4S,4aS,9aR)-4a-acetoxy-3-((1E,3E)-5-(2-(2-hydroxyethyl)hydrazineyl)-4-methyl-5-oxopenta-1,3-dien-1-yl)-3-methyl-1-oxo-3,4,4a,5,6,9-hexahydro-1H-4,9a-ethanocyclohepta[c]pyran-7-carboxylate]", "values": [{"measurement": "mrna remaining at 10 µM", "setting": "[1]", "value": "1.4 ± 1.1", "unit": "%"}, {"measurement": "body weight during the treatment", "setting": "[2]; 25 and 50 mg/kg", "value": "no obvious loss of body weight"}, {"measurement": "tumor growth inhibitory rate", "setting": "[2]; 25 mg/kg", "value": 53.2, "unit": "%"}, {"measurement": "tumor growth inhibitory rate", "setting": "[2]; 50 mg/kg", "value": 48.3, "unit": "%"}, {"measurement": "TAMs with the M1-like phenotype (CD86+ TAMs, MHC II+ TAMs)", "setting": "[3]", "value": "marginal upregulation"}, {"measurement": "infiltration of CD8+ T cells and activated (GRZB+, IFNγ+, TNFα+) CD8+ T cells in CD45+ cells", "setting": "[3]", "value": "significantly upregulated"}, {"measurement": "infiltration of total immune cells (CD45+ cells)", "setting": "[3]", "value": "increasing trend"}, {"measurement": "tumor infiltration of total TAMs, CD206+ TAMs and ARG1+ TAMs in CD45+ cells", "setting": "[3]", "value": "significantly reduced"}]}
